# Values of other authors as cited in US20080268066A1, “Synergistic Formulation for Preventing and/or Treating Diabetes” (priority 2005, published 2008).
# Structures can show the parent of a compound that is named as a salt. Where two headings read alike, the source gives them in different places.
# Columns and labels:
# [1] = tested on: women of polycystic ovary syndrome (PCOS); details: daily dose of 1500 mg, 8 weeks later, about 20 women
# [2] = intravenous 600 mg, 5 times, after two weeks; control group 2 points
# [3] = tested on: babies of mothers with diabetes / embryos in similar glucose concentration; details: 71%-88% without
# homocysteine = details: human, in vivo
# [4] = tested on: acute medicamentous kidney lesion
# [5] = tested on: patients with retinal degeneration; details: among 16 patients; supplement every day for 6 months or more
# prostate cancer = details: fraction
smiles,measurement,setting,value
CN(C)C(=N)N=C(N)N [Metformin HCl],women whose menstruation recovered to a normal level,[1],86.7%
O=C(O)CCCCC1CCSS1 (stereo not drawn) [alpha_lipoic acid],decrease of the feeling of pain,[2],6 points
Nc1nc2ncc(CNc3ccc(C(=O)N[C@@H](CCC(=O)O)C(=O)O)cc3)nc2c(=O)[nH]1 [folic acid],probability of babies' aplasia,[3]; embryos in similar glucose concentration with folic acid,5%
same,probability of babies' aplasia,[3]; pregnant animals fed with folic acid,3%
same,decrease of the level of homocysteine,homocysteine,25%
"N[C@@H](CCC(=O)N[C@@H](CS)C(=O)NCC(=O)O)C(=O)O [glutathione, L-glutamic acid-L-cysteine-glycine]",total effectiveness on blood urine,[4]; P<0.01,89%
same,total effectiveness,[4]; P<0.05,92%
same,total effectiveness on proteinuria,[4]; P<0.05,57%
CC1=C[C@H](O)CC(C)(C)[C@H]1/C=C/C(C)=C/C=C/C(C)=C/C=C/C=C(C)/C=C/C=C(C)/C=C/C1=C(C)C[C@@H](O)CC1(C)C [lutein],patients whose vision was apparently improved,[5],12 patients
CC(C)=CCC/C(C)=C/C=C/C(C)=C/C=C/C(C)=C/C=C/C=C(C)/C=C/C=C(C)/C=C/C=C(\C)CCC=C(C)C [lycopene],patients in whom cancer cells proliferation were stopped,"prostatic carcinoma; human, in vivo",44%
same,patients with size of the tumor not over 4 dm^3,"prostatic carcinoma; taken 3 weeks before the operation, 55% without",85%
[Se] [selenium],decrease of the occurrence of prostate cancer,prostate cancer,½-⅓
